16 compounds from paper PMC7583942, “Profiling Anticancer and Antioxidant Activities of Phenolic Compounds Present in Black Walnuts (Juglans nigra) Using a High-Throughput Screening Approach” (Molecules, 2020) can be followed below.

Molecules are shown by their SMILES. Read-outs that look alike come from different tables or passages of the source. Where only a bound is given, the exact number is not on record here.

The subject of data set [1] is non-tumorigenic lung fibroblast cells (MRC-5). Put plainly: Cell proliferation assay (CellTiter-Glo), MRC-5. Type of data set: cell-based, human. The note with it: read-out: Half maximal inhibitory concentration (IC50), MRC-5 Cell Line. The protocol:
(§1) An Nrf2 antioxidant response element (ARE) reporter HepG2 cell line, a stably transfected liver cell line expressing a firefly luciferase gene under the control of the ARE, was purchased from BPS Bioscience (San Diego, CA, USA). The human alveolar epithelial cell line A549 and the human lung fibroblast cell line MRC-5 were obtained from American Type Culture Collection (ATCC) (CCL-185 and CCL-171, ATCC, Manassas, VA, USA). The HepG2-ARE cells were grown in modified Eagle’s medium (MEM) supplemented with GlutaMAX, 10% fetal calf serum (FBS) and 600ug/mL Geneticin (Thermo Fisher Scientific, Waltham, MA, USA). […] All cells were grown and maintained at 37 °C in a humidified incubator with 5% CO2. Influence of the phenolic compounds on cell growth in the tumorigenic alveolar epithelial cells (A549) and non-tumorigenic lung fibroblast cell (MRC-5) cell lines was investigated using the CellTiter-Glo® cell viability assay kit (G7571, BioVision, CA, USA), according to the manufacturer’s instructions. […] The cultures were treated with the phenolic compounds and DL-Sulphorane (a known antiproliferative agent as a positive control) at 7 final concentrations (as mentioned above) and a vehicle (0.35% DMSO). After 72h of incubation, CellTiter-Glo Luminescent assay reagent (Promega) was dispensed at a volume of 10 µL per well into the 384-well plates for 10 min using the Matrix Wellmate dispenser (Thermo Fisher Scientific). The plates were allowed to incubate at room temperature for 20 min and then the luminescence was read using an Enspire microplate reader (Perkin Elmer Inc.) The relative cytotoxicity (%) of the phenolic compounds was calculated by dividing the specific luminescence absorbance of the treated sampled by the specific luminescence absorbance of the control sample and multiplying by 100. The control sample (in the presence of DMSO vehicle and without the compounds) was set at 100%. Non-linear regression analysis of data was performed to identify the dose-response curve for each compound. The IC50 values (half maximal inhibitory concentration) of each compound were determined from the dose-response curve for the A549 and MRC-5 cell lines using GraphPad Prism 8.

Data set [2] relates to tumorigenic alveolar epithelial cells (A549). Kind of data set: Cell proliferation assay (CellTiter-Glo), A549. The note with it: read-out: Half maximal inhibitory concentration (IC50), A549 Cell Line. It counts as cell-based, human. The protocol: as §1
The nature of data set [3]: Total antioxidant capacity (TAC) colorimetric assay. The note with it: for Fold-Increase Over Trolox: coefficient of compound model divided by coefficient of Trolox control; for total antioxidant capacity compared with the control (Trolox): in words; for Slope (in Trolox Equivalents): linear regression of dose-response, 7 concentrations, Cu2+ reagent, 1.5 h, absorbance 570 nm. The protocol:
The antioxidant capacity of the phenolic compounds was evaluated using a total antioxidant capacity (TAC) colorimetric assay kit (K274-100, BioVision, CA, USA), according to the manufacturer’s instructions. Briefly, the phenolic compounds tested at 7 concentrations (as described above) were added to 384-well plates. Subsequently, Cu^2+ working solution (12.5 µL/ well) was added into the sample wells. The 384-well plates were incubated for 1.5 h at room temperature and the absorbance of the samples was then read at 570 nm using a microplate reader (Enspire, Perkin Elmer Inc., Waltham, MA, USA). Trolox was used to standardize the antioxidant capacity, as recommended by the manufacturer. A Trolox standard curve was included, and the total antioxidant capacity of the phenolic compounds was interpolated and expressed as Trolox equivalent (mM) from a seven-parameter logistic curve of the Trolox control using curve-fitting software.
For total antioxidant capacity analysis, linear regression analysis was performed to identify the linear regression equation for each compound using GraphPad Prism 8 (San Diego, CA, USA). The coefficient of the compound equation was compared with the coefficient of the Trolox control to determine the relative total antioxidant capacity of each compound. Fold-increase over Trolox was calculated by dividing the coefficient of the compound models by the coefficient of the Trolox control.

Data set [4] relates to antioxidant response element (ARE) in HepG2-ARE cells. Put plainly: Antioxidant response element (ARE) activation, Steady-Glo luciferase reporter assay. Type of data set: cell-based, human. The protocol:
An Nrf2 antioxidant response element (ARE) reporter HepG2 cell line, a stably transfected liver cell line expressing a firefly luciferase gene under the control of the ARE, was purchased from BPS Bioscience (San Diego, CA, USA). The human alveolar epithelial cell line A549 and the human lung fibroblast cell line MRC-5 were obtained from American Type Culture Collection (ATCC) (CCL-185 and CCL-171, ATCC, Manassas, VA, USA). The HepG2-ARE cells were grown in modified Eagle’s medium (MEM) supplemented with GlutaMAX, 10% fetal calf serum (FBS) and 600ug/mL Geneticin (Thermo Fisher Scientific, Waltham, MA, USA). The tumorigenic alveolar epithelial cells (A549) and non-tumorigenic lung fibroblast cells (MRC-5) were grown in RPMI medium supplemented with 10% FBS. All cells were grown and maintained at 37 °C in a humidified incubator with 5% CO2.
The impact of the phenolic compounds on ARE activation in the HepG2-ARE cell line was evaluated using Steady-Glo® Luciferase assay system (E2510, Promega, Madison, WI, USA), following the manufacturer’s instructions. In brief, the HepG2 -ARE cells were seeded at a density of 10,000 cells/well in 384-well plates containing 50 µL of the complete media per well using a Multidrop Combi dispenser (Thermo Fisher Scientific, Waltham, MA, USA) and then the plate cultures were incubated at 37 °C in a 5% CO2 humidified incubator for 20 h. The HepG2-ARE cells were incubated with compounds for 18 h. The known ARE activator TBHQ was used as a positive control and the cells treated with 0.35% DMSO and without compounds tested served as a vehicle control. The cells in the absence of DMSO and the compounds were utilized for measuring the background luminescence. The reporter activity was measured by the addition of 25 µL Steady-Glo® luciferase assay reagent (Promega) for 30 min using the Multidrop Combi dispenser (Thermo Fisher Scientific). The luminescence intensities of the 384-well plates were read on Enspire microplate reader (Perkin Elmer Inc.). Percent cytotoxicity of compounds was normalized to the positive and negative controls on each assay plate.
The ARE fold induction of the compounds was measured by dividing the luminescence absorbance of the treatment by the specific luminescence absorbance of the control sample and multiplying by 100. The control sample (in the presence of DMSO vehicle and without the compounds) was set at 100%.
In general terms: A reporter such as luciferase makes a cellular process visible.

The mark [5] stands for this setting: Homo sapiens, MRC5, 72 h incubation.
The mark [6] stands for this setting: Homo sapiens, A549, 72 h incubation.

`COc1cc(C(=O)O)cc(OC)c1O` [Syringic acid]: in data set [1] (setting [5]), the IC50 is more than 250 µM. Further, the IC50 in data set [2] (setting [6]) is more than 250 µM. Also, in data set [3], the “Fold-Increase Over Trolox” value is on record as 1.1, the “total antioxidant capacity compared with the control (Trolox)” value is listed as “higher” and the “Slope (in Trolox Equivalents)” value is given as 0.001088 ± 1.057 × 10^−5.

As for `O=c1c(O)c(-c2ccc(O)c(O)c2)oc2cc(O)cc(O)c12` [Quercetin], in data set [1] (setting [5]), the IC50 was 99.5 µM. Besides, the IC50 in data set [2] (setting [6]) was found to be 87.7 µM. In data set [3], the “Fold-Increase Over Trolox” value is 4.0, the “total antioxidant capacity compared with the control (Trolox)” value is listed as “higher” and the “Slope (in Trolox Equivalents)” value is 0.004045 ± 1.392 × 10^−4.

As to `O=c1c(O[C@@H]2O[C@H](CO)[C@@H](O)[C@H](O)[C@H]2O)c(-c2ccc(O)c(O)c2)oc2cc(O)cc(O)c12` [Quercetin 3-β-D-glucoside], the IC50 in data set [1] (72 h incubation) came to 12.2 µM. For the same compound, the IC50 in data set [2] (72 h incubation) came to 6.89 µM. The “toxicity to HepG2-ARE cells” value in data set [4] (at high concentrations, did not induce ARE activation) is recorded as “toxic to cells”. Further, in data set [3], the “Fold-Increase Over Trolox” value is recorded as 2.9, the “total antioxidant capacity compared with the control (Trolox)” value is on record as “higher” and the “Slope (in Trolox Equivalents)” value is reported as 0.002908 ± 1.522 × 10^−4.

Take `O=C(O)[C@]1(O)C[C@@H](O)[C@@H](O)[C@H](O)C1` [Quinic acid]: in data set [1] (setting [5]), the IC50 is more than 250 µM. In addition, in data set [2] (setting [6]), the IC50 was more than 250 µM. In addition, in data set [3], the “Fold-Increase Over Trolox” value is on record as less than 0.1, the “total antioxidant capacity compared with the control (Trolox)” value was “lower” and the “Slope (in Trolox Equivalents)” value is recorded as −0.0000004 ± 1.034 × 10^−6.

Turning to `O=C(O)C=Cc1ccc(O)cc1` [p-Coumaric acid], the IC50 in data set [1] (setting [5]) was more than 250 µM. The IC50 in data set [2] (setting [6]) is more than 250 µM. For the same compound, in data set [3], the “Fold-Increase Over Trolox” value is reported as 0.3, the “total antioxidant capacity compared with the control (Trolox)” value is reported as “lower” and the “Slope (in Trolox Equivalents)” value is 0.0003139 ± 1.434 × 10^−5.

For the compound `O=C(O)c1cc(O)c(O)c(O)c1` [Gallic acid], in data set [1] (setting [5]), the IC50 is 48.2 µM. Moreover, in data set [2] (setting [6]), the IC50 is more than 250 µM. Also, in data set [3], the “total antioxidant capacity compared with the control (Trolox)” value is reported as “higher” and the “Slope (in Trolox Equivalents)” value is on record as 0.002541 ± 1.392 × 10^−5.

On to `COc1cc(C(=O)O)ccc1O` [Vanillic acid], for which the IC50 in data set [1] (setting [5]) was more than 250 µM. For the same compound, the IC50 in data set [2] (setting [6]) is more than 250 µM. Moreover, in data set [3], the “Fold-Increase Over Trolox” value is recorded as 0.7, the “total antioxidant capacity compared with the control (Trolox)” value is “lower” and the “Slope (in Trolox Equivalents)” value was 0.0007396 ± 4.245 × 10^−5.

Take `Oc1cc(O)c2c(c1)O[C@H](c1ccc(O)c(O)c1)[C@H](O)C2` [(−)-Epicatechin]: the IC50 in data set [1] (setting [5]) was more than 250 µM. The IC50 in data set [2] (setting [6]) was more than 250 µM. The “ARE activation among all compounds (rank in words)” value in data set [4] (HepG2-ARE cells, 18 h) is recorded as “strongest”. For the same compound, in data set [3], the “Fold-Increase Over Trolox” value is reported as 3.7, the “total antioxidant capacity compared with the control (Trolox)” value is “higher” and the “Slope (in Trolox Equivalents)” value is on record as 0.003729 ± 7.546 × 10^−5.

For the compound `C[S+]([O-])CCCCN=C=S` (racemic) [DL-Sulforaphane, reference compound], the results for the IC50 in data set [1] (72 h incubation) and in data set [2] (72 h incubation) were 9.95 µM and 17 µM, respectively.

Take `COc1cc(/C=C/C(=O)O)ccc1O` [Ferulic acid]: the IC50 in data set [1] (72 h incubation) was more than 250 µM. For the same compound, the IC50 in data set [2] (72 h incubation) was more than 250 µM. Besides, in data set [3], the “Fold-Increase Over Trolox” value came out at 1.8, the “total antioxidant capacity compared with the control (Trolox)” value is “higher” and the “Slope (in Trolox Equivalents)” value is 0.001775 ± 5.026 × 10^−5.

`Cc1c(C)c2c(c(C)c1O)CCC(C)(C(=O)O)O2` (centres unmarked) [Trolox, reference compound]: in data set [3], the “Fold-Increase Over Trolox” value is recorded as 1.0 and the “Slope (in Trolox Equivalents)” value was 0.001014 ± 1.125 × 10^−5.

`O=C(O)c1ccc(O)cc1` [p-Hydroxybenzoic acid]: the IC50 in data set [1] (setting [5]) and in data set [2] (setting [6]) was more than 250 µM each time. For the same compound, in data set [3], the “total antioxidant capacity compared with the control (Trolox)” value was “lower”. For the same compound, the “Slope (in Trolox Equivalents)” value in data set [3] is −0.000008 ± 1.260 × 10^−5.

With `C[C@@H]1O[C@@H](O[C@H]2[C@H](Oc3cc(O)c4c(c3)O[C@H](c3ccc(O)cc3)CC4=O)O[C@H](CO)[C@@H](O)[C@@H]2O)[C@H](O)[C@H](O)[C@H]1O` [Naringin], in data set [1] (setting [5]), the IC50 was more than 250 µM. Further, in data set [2] (setting [6]), the IC50 is more than 250 µM. For the same compound, in data set [3], the “Fold-Increase Over Trolox” value is listed as 0.5, the “total antioxidant capacity compared with the control (Trolox)” value is listed as “lower” and the “Slope (in Trolox Equivalents)” value was 0.0005177 ± 9.755 × 10^−6.

As to `O=c1oc2c(O)c(O)cc3c(=O)oc4c(O)c(O)cc1c4c23` [Ellagic acid], the IC50 in data set [1] (setting [5]) was more than 250 µM. Also, in data set [2] (setting [6]), the IC50 is more than 250 µM. In data set [3], the “Fold-Increase Over Trolox” value came out at 0.5, the “total antioxidant capacity compared with the control (Trolox)” value is recorded as “lower” and the “Slope (in Trolox Equivalents)” value is reported as 0.0005183 ± 2.860 × 10^−5.

For `Oc1cc(O)c2c(c1)O[C@H](c1ccc(O)c(O)c1)[C@@H](O)C2` [(+)-Catechin], the IC50 in data set [1] (72 h incubation) is more than 250 µM. Besides, in data set [2] (72 h incubation), the IC50 is more than 250 µM. Also, in data set [3], the “Fold-Increase Over Trolox” value stood at 2.0, the “total antioxidant capacity compared with the control (Trolox)” value is given as “higher” and the “Slope (in Trolox Equivalents)” value was 0.002029 ± 3.184 × 10^−5.

In the case of `C[C@@H]1O[C@@H](OC[C@H]2O[C@@H](Oc3c(-c4ccc(O)c(O)c4)oc4cc(O)cc(O)c4c3=O)[C@H](O)[C@@H](O)[C@@H]2O)[C@H](O)[C@H](O)[C@H]1O` [Rutin], the IC50 in data set [1] (setting [5]) is more than 250 µM. Also, the IC50 in data set [2] (setting [6]) is more than 250 µM. In data set [3], the “Fold-Increase Over Trolox” value came to 2.9, the “total antioxidant capacity compared with the control (Trolox)” value is reported as “higher” and the “Slope (in Trolox Equivalents)” value was 0.002962 ± 1.551 × 10^−4.
